The test system of data set [1] is Gram-negative bacterial strains and Staphylococcus aureus. In words: MIC determination, summary over the strain panel. The format is cell-based. Particulars: summary of Table 3. How it is done: Peptides were tested against the Gram-negative Escherichia coli ATCC 25922, Ainetobacter baumannii ATCC 19606, P. aeruginosa ATCC 27853, P. aeruginosa PAO1; and the Gram-positive S. aureus ATCC 25923, MDR#1, MDR#2, MDR#3 and MDR#4. The MIC values were determined as previously reported. Briefly, bacteria were grown at 37 °C in Luria-Bertani broth (LB) until an optical density (OD) of 0.8 was reached (λ=590 nm). Aliquots of bacteria (50 µL) were added to each well of a 96-multiwell plate containing serial dilutions of the tested peptides in Mueller Hinton broth (MH). The final cell concentration was 1x10^6 CFU/ml.

For data set [2], the system named is P. aeruginosa PAO1. Put plainly: Co-culture (biotic biofilm) on polarized airway epithelium at ALI. The format is cell-based. The following applies: 20 μM peptide in PBS for 2 h; PAO1 grown 6 h on polarized homozygous F508del airway epithelium at ALI; vs PBS. The procedure: This assay was performed using co-cultures of polarized and well-differentiated human bronchial epithelial cells derived from a homozygous F508del patient and P. aeruginosa PAO1 grown to a log phase. Polarized human epithelia in transwell permeable supports and maintained in ALI culture were inoculated with P. aeruginosa PAO1 in 50 µl of cell culture medium (initial inoculum of 200 bacterial cells per ALI culture insert, according to [75]) at the apical side of the supports for 1 h to allow attachment of the bacteria to the epithelium in ALI culture. Unattached bacteria were removed and the supports incubated (37 °C; 5% CO₂) for 5 h prior to the addition of peptide. Each peptide, at 20 μM, diluted in 100 µl PBS, was added for 2 h. After a total of 8 h, the airways surface liquid was collected and aliquots poured on plates for counting. Afterwards, the epithelium was disrupted by adding 150µl Tripsin-EDTA and incubated for 15 min. Subsequently, 200 µl Triton X-100 (0.1%) was added and the supports incubated again for 15 min. Serial dilution and counting of bacterial cells was performed on tryptic soy agar plates to determine the number of CFU.

The next data set concerns F508del-CFBE41o- cells. The following applies: 20 μM peptide, 24 h, CCK-8, absorbance 450 nm. The procedure:
The Cell Counting Kit 8 (CCK-8) assay was performed as follows to assess cell viability. About 1×10^4 F508del-CFBE41o- cells were seeded in each well of a 96-well plate and incubated at 37 °C and 5% CO2. After 24 h, the medium was replaced by MEM supplemented with 2 mM L-glutamine and containing each peptide at different concentrations. The plate was incubated for 24 h and subsequently 10 μl of CCK-8 reagent were added to each well. After 2 h incubation, the absorbance of each well was measured at 450 nm using a microplate reader (Infinite M200; Tecan, Salzburg, Austria).

The subject of data set [3] is P. aeruginosa PAO1. Put plainly: Murine lung infection model, wild-type littermates. It counts as in vivo, mice. Particulars: 0.1 mg/kg (20 μM) i.t. 1 h after i.t. ~3 x 10^6 CFU PAO1, lungs at 24 h, three independent experiments. The procedure: (§1) The animal experiments were performed according to a protocol (protocol 23083347) approved by the Institutional Animal Care and Use Committee (IACUC) of the University of Pittsburgh based on the NIH guide for the care and use of laboratory animals. Transgenic mice with expression of the protein-coding region of the mouse Scnn1b (β-ENaC) and driven by rat airway-specific Scgb1a1 (also called the Clara cell secretory protein) gene were previously described and obtained from Dr. Wanda O'Neal from the University of North Carolina at Chapel Hill. β-ENaC mice in C57BL/6 genetic background were maintained in heterozygous conditions and continuously bred with C57BL/6 wild-type mice. Genotyping was performed for all pups to identify their respective genotypes. Mice expressing β-ENaC and their wild-type littermates at the same ages were used for experiments. Seven-week-old female and male mice were anesthetized by isoflurane inhalation and instilled intratracheally with ~3 x 10^6 CFU of P. aeruginosa PAO1 in 50 µl PBS. […] Control mice were given 50 µl of PBS without peptide. After 24 h, lungs were harvested, four right lobes of each mouse lung were homogenised, serial diluted to determine the total lung bacterial burden, according to the published method.

Data set [4] has as its system P. aeruginosa PAO1. In words: Murine lung infection model, β-ENaC transgenic mice. The following applies: for lowering of lung bacterial burden (CFU): 0.1 mg/kg (20 μM) i.t. 1 h after i.t. ~3 x 10^6 CFU PAO1, lungs at 24 h, three independent experiments. It counts as in vivo. The procedure:
as §1

For data set [5], the system named is intracellular calcium in null FRT cells. In words: Microplate reader Fluo-4 Ca2+ assay. It counts as cell-based, rat. The following applies: peptides 10 µM each, UTP 100 µM (Fig. 7) or 10 µM (method), acute addition. How it is done: Experiments for the evaluation of intracellular calcium mobilization were performed using an automated micro-plate reader (FluoStar) equipped with syringe pumps and optical excitation/emission filters (500/535 nm). FRT cells were cultured until confluence in 96-well microplates. Before starting the assay, cells were washed 3 times with complete PBS (200 μl/wash) and then loaded for 1 h at 37 °C with 5 μM Fluo-4/AM (Thermo Fisher Scientific) in PBS containing 10 mM glucose, 0.5 mM sulfinpyrazone and 1% fetal bovine serum. After loading, cells were washed twice with PBS (120 μl/wash) and incubated for 15 min at 37 °C with 100 μl of PBS plus 10 mM glucose and 0.5 mM sulfinpyrazone. The assay was run on one well at a time by programming the plate reader to acquire the fluorescence emitted from each well every 0.2 s for 120 s. At 2.8 s from the start of reading, the plate reader injected 100 μl of PBS (with glucose and sulfinpyrazone) containing vehicle alone (DMSO), peptides (10 µM each) or UTP (10 µM).

The next data set has as its target T1, G551D-CFTR (Homo sapiens, UniProt P13569, G551D).
T1 construct: expressed in transfected cells
Put plainly: TEER/transepithelial conductance in G551D-FRT cells. The format is cell-based. Particulars: 20 µM FSK + 10 µM peptide, 10 min, n ≥ 6. The procedure: (§2) To evaluate the effect of the peptides on the ion current controlled by CFTR, the transepithelial conductance was measured in epithelia formed by FRT expressing CFTR with different mutation. Cells were seeded on permeable supports (24 Millicell plates PSHT01QR1) and then incubated in their standard culture medium. Cells expressing F508del mutation were pretreated with 1 μM VX-809 to deliver the defective protein to the plasma membrane. After 24 h, the medium was replaced with saline solution containing (in mM): 130 NaCl, 2.7 KCl, 1.5 KH2PO4, 1 CaCl2, 0.5 MgCl2, 10 glucose, 10 Na-Hepes (pH, 7.4), which was added to both apical and basolateral compartments of the permeable supports. Initially, TEER was measured in basal conditions without CFTR activation, using the epithelial voltmeter (MILLICELL ERS-2, Millipore Burlington, MA). Afterwards, 20 μM FSK + 10 μM GEN (as positive control) or FSK+ peptides at the desired concentration were added on the apical side of the epithelium and TEER measurement was performed at 37 °C after 10 min from the addition of the compounds. Finally, TEER was measured after the addition of 30 μM PPQ102 to the apical side of the epithelium, to inhibit CFTR. From the values of TEER obtained before and after CFTR inhibition, the CFTR-dependent TEER was calculated, for each condition. All TEER values were converted to transepithelial conductance (TEEC) using the formula TEEC = 1/TEER [68].

A further data set deals with T2, G1349D-CFTR (Homo sapiens, UniProt P13569, G1349D).
T2 construct: expressed in transfected cells
T2 sequence (P13569 whole entry G1349D): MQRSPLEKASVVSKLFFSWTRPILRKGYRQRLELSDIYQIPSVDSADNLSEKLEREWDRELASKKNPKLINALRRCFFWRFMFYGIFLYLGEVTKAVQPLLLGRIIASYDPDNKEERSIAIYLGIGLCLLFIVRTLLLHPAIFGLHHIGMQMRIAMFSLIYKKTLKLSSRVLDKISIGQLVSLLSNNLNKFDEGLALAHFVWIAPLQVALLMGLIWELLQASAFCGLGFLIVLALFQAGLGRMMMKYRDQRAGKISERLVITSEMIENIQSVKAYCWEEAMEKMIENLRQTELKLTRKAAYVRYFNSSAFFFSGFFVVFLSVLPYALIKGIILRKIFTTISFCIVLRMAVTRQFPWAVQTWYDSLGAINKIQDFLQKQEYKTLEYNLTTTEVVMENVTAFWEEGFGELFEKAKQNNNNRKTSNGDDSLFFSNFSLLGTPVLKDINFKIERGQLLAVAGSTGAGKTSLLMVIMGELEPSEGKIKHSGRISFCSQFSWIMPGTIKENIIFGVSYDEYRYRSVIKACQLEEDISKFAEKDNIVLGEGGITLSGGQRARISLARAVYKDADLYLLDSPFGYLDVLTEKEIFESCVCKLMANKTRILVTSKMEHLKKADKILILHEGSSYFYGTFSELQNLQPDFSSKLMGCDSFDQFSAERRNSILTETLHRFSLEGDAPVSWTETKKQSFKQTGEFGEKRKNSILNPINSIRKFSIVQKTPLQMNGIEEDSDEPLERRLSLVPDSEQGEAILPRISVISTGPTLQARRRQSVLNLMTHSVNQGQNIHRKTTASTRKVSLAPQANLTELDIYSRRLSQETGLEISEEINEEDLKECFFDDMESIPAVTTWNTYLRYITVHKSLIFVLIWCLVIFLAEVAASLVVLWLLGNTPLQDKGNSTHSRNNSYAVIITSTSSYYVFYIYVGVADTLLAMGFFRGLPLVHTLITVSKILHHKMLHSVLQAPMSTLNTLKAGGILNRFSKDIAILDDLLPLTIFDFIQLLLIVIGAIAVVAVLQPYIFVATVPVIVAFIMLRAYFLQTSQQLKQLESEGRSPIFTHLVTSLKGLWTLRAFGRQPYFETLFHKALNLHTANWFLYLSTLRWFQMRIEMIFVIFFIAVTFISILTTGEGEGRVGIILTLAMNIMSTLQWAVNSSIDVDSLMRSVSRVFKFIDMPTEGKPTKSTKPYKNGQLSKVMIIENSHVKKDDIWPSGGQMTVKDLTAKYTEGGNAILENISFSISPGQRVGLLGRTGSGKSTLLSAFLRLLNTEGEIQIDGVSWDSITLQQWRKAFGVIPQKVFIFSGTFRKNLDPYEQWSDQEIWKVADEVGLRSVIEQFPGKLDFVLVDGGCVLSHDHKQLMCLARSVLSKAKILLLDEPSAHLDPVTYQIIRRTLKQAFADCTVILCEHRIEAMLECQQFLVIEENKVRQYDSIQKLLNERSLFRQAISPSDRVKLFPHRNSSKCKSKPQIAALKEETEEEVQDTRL
Put plainly: TEER/transepithelial conductance in G1349D-FRT cells. The format is cell-based. Particulars: 20 µM FSK + 10 µM peptide, 10 min, n ≥ 6. How it is done: as §2

Another data set has as its system P. aeruginosa. Particulars: C57BL/6 mice, i.t. instillation at 0.1 mg/Kg (corresponding to 20 μM); cited from earlier work. From the text:
In the last years, we identified two antimicrobial peptides (AMPs), Esculentin-1a(1–21)NH2 [Esc(1–21)] and its diastereomer Esc(1–21)−1c (Esc peptides, Table 1), with a strong activity against the free-living and sessile forms of P. aeruginosa and with the ability to accelerate recovery of damaged bronchial epithelium.

Non-standard residues stand in square brackets, D forms with d. Residues, ends and D or L forms follow the SMILES beside them. No end group written: not given here. Aib = CC(C)(N)C(=O)O

T1 sequence (P13569 whole entry G551D): as the sequence (P13569 whole entry G1349D) above, with G551D, D1349G counted along it

`CC[C@H](C)[C@H](NC(=O)CN)C(=O)N[C@@H](Cc1ccccc1)C(=O)N[C@@H](CO)C(=O)N[C@@H](CCCCN)C(=O)N[C@@H](CC(C)C)C(=O)N[C@@H](C)C(=O)NC(C)(C)C(=O)N[C@@H](CCCCN)C(=O)N[C@@H](CCCCN)C(=O)N[C@H](C(=O)N[C@@H](CCCCN)C(=O)N[C@@H](CC(N)=O)C(=O)N[C@@H](CC(C)C)C(=O)N[C@@H](CC(C)C)C(=O)N[C@H](C(=O)N[C@@H](CO)C(=O)NCC(=O)N[C@@H](CC(C)C)C(=O)N[C@@H](CCCCN)C(=O)NCC(N)=O)[C@@H](C)CC)[C@@H](C)CC` [Esc_Aib-8, [Aib^8]-Esc(1–21)] (H-GIFSKLA[Aib]KKIKNLLISGLKG-NH2; N-terminus assumed): the “ability to inhibit bacterial growth, in words” value in data set [1] is “the most active one against Gram-negative bacteria”. The “reduction of bacterial load (ASL plus intracellular CFU)” value in the data set on P. aeruginosa PAO1 [2] is ~2 log10-unit. The viable cells result in the data set with F508del-CFBE41o- cells is on record as “more than 90%”. In the data set on P. aeruginosa PAO1 [3], the “reduction in the number of lung bacterial cells (CFU)” value (“reduction in the number” for short) is given as ~ 2 log10. For the same compound, in the data set on P. aeruginosa PAO1 [4], the “lowering of lung bacterial burden (CFU)” value was ~ 2 log10. Moreover, the “efficacy in lowering lung bacterial load, comparison in words” value in the data set on P. aeruginosa PAO1 [4] (0.1 mg/kg i.t., lungs at 24 h) is reported as “trend slightly stronger than that of Esc(1–21)−1c”.

As for `O=c1ccn([C@@H]2O[C@H](COP(=O)(O)OP(=O)(O)OP(=O)(O)O)[C@@H](O)[C@H]2O)c(=O)[nH]1` [UTP], the “change in Fluo-4 fluorescence (intracellular calcium)” value in data set [5] was “marked and rapid increase in fluorescence”.

Take “GIFSKLAGKKIKNLLIEGLKG-NH2 [Esc-1C_DGlu-17, analog containing D-Glutamic acid at position 17]”: the “variation in CFTR-mediated conductance” value at G551D-CFTR and on G1349D-CFTR was “no variation in CFTR-mediated conductance” each time. The “MIC increase versus reference Esc(1–21)−1c” value in data set [1] is given as ~ 4 fold.

As to “GIFSKLAGKKIKNLLIEGLKG-NH2 [Esc_Glu-17, analog containing L-Glutamic acid at position 17]”, the “variation in CFTR-mediated conductance” value on G551D-CFTR and at G1349D-CFTR was “no variation in CFTR-mediated conductance” throughout. Further, the “ability to inhibit bacterial growth, in words” value in data set [1] is reported as “comparable to the reference Esc(1–21)−1c”.

Regarding “GIFSKLAGKKIKNLLISGLKG-NH2 [Esc(1–21)−1c, diastereomer of Esc(1–21)]”, the “reduction in the number” value in the data set with P. aeruginosa PAO1 [3] is ~ 2 log10. Further, in the data set on P. aeruginosa PAO1 [4], the “lowering of lung bacterial burden (CFU)” value is ~ 2 log10. For the same compound, the “effect on lung bacterial burden” value in the data set on P. aeruginosa was “reduce lung bacterial burden”.

For the compound “Gly-Ile-Phe-Ser-Lys-Leu-Ala-Gly-Lys-Lys-Ile-Lys-Asn-Leu-Leu-Ile-phosphoSer-Gly-Leu-Lys-Gly-NH2 [D-phosphoEsc, isoform carrying a D-leucine at position 14 and D-phosphoserine at position 17]”, the “CFTR-mediated conductance (∆G) relative to FSK alone” value on G551D-CFTR and at G1349D-CFTR was “at least 3 fold” in each case.

Turning to colistin [reference compound], the “reduction in the number” value with P. aeruginosa PAO1 [3] was ~ 2 log10.
